Experimental data reported in ChEMBL document CHEMBL4304832, “Novel Pyrazole-Containing Compounds Active against Mycobacterium tuberculosis” (ACS Med Chem Lett, 2019).

Test system: Mycobacterium tuberculosis
Assay: Antitubercular activity against Mycobacterium tuberculosis H37Rv infected in C57BL/6 mouse assessed as reduction in bacterial load in lungs at 30 mg/kg administered once daily starting from 5 days post infection for 4 consecutive days and measured on day 9
Format: functional

For `COc1c(N2C[C@@H]3CCCN[C@@H]3C2)c(F)cc2c(=O)c(C(=O)O)cn(C3CC3)c12` [MOXIFLOXACIN], the Activity was 3.5 log10CFU.
